Results published in patent US20110105397A1, “METHOD FOR TREATING HEART FAILURE WITH STRESSCOPIN-LIKE PEPTIDES” (priority 2009, published 2011).
Blank lines part the entries; values can stand above or below the molecule they belong to. Where no end group is shown, it is not given here.

Columns and labels:
[1] = test system: dogs with advanced heart failure; assay: Hemodynamic, angiographic, echocardiographic profile in anaesthetized dogs with advanced heart failure, IV infusion; format: in vivo, dog
Protocol: The effects of h-SCP (SEQ ID NO:1) on cardiovascular function were also assessed in anaesthetized dogs with advanced, irreversible heart failure of ischemic etiology (Sabbah et al., 1991, Am. J. Physiol., vol. 260, pp. H1379-H1384; Sabbah et al., 1994, Circulation, vol. 98, pp. 2852-2859; Chandler et al., 2002, Circ. Res., vol. 91, pp. 278-280). Progressive, advanced heart failure was produced in mongrel dogs by multiple sequential intracoronary microembolization with polystyrene latex microspheres. Dose infusions of 2.2, 4.3, and 7.3 ng/kg/min were administered intravenously over 60 minutes just following or just prior to hemodynamic, angiographic, echocardiographic, and Doppler measurements using conventional hemodynamic, angiographic, echocardiographic, and radiographic methods. The h-SCP polypeptide (SEQ ID NO:1) produced dose- (infusion-) dependent increases in LVEF and SV and decreases in left ventricular end diastolic pressure (LVEDP), left ventricular pressure during isovolumic relaxation (LV-dP/dt), systemic vascular resistance (SVR), and left ventricular end-systolic volume (LVESV) that correlated with plasma concentration. No significant change in heart rate, peak systolic aortic blood pressure, LV+dP/dt, mean pulmonary artery pressure, mean pulmonary artery wedge pressure, right atrial pressure, or myocardial oxygen consumption were recorded following any of the 1 hour intravenous infusions (Table 18 and FIGS. 12 A & B). The improvement in LV systolic and diastolic function was not associated with the development of de novo ventricular arrhythmias.
In order to determine the threshold effective dose-infusion in dogs with advanced heart failure, a further study was performed at lower dose infusions. In addition, the opportunity was taken to explore whether the increase in LVEF produced by higher dose-infusions of 4.3 ng/kg/min would remain stable over a longer infusion period, i.e. 120 minutes.
In order to understand the potential cardiovascular effects of neutralizing antibody formation to h-SCP (SEQ ID NO:1), SV30 (SEQ ID No. 118), a competitive antagonist of CRHR2, was administered to dogs (N=4) with advanced heart failure. […] These experiments with SV30 indicate that baseline cardiovascular parameters in dogs with advanced heart failure were not dependent upon endogenous hormone stimulation of CRHR2. Similar findings have been reported in healthy conscious and anaesthetized rats (Gardiner et al., J. Pharmacol. Exp. Ther., 2007, vol 321, pp. 221-226).

[2] = biological target: T1, CRHR1 (Homo sapiens, UniProt P34998); assay: CRHR1 radioligand binding, [125I]-(Tyr0)-sauvagine; parameters: host or cells: cell membranes
T1 sequence (P34998 24-415): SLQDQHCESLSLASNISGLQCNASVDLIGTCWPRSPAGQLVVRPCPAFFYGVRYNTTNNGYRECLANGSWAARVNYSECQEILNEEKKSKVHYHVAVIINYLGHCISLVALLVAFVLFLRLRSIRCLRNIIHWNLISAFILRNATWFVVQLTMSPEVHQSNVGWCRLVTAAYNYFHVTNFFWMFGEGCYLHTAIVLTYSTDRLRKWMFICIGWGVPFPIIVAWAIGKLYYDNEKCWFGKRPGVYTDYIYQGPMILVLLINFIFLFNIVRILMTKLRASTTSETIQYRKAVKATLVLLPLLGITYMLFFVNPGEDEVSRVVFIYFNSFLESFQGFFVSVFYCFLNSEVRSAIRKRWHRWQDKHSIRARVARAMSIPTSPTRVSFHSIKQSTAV
Excerpt: The solution was then homogenized with a Polytron tissue grinder at a setting of 10 and 7×3 s (Brinkmann Instruments, Westbury, N.Y.). […] The bound radioactivity was separated by filtration using a Multiscreen Resist manifold (Millipore Corp., Billerica, Mass., U.S.A). The filters were washed three times with ice-cold PBS at pH 7.5 and radioactivity retained on the filters was quantified by its liquid scintillation measured by a TopCount counter (Packard BioScience, Boston, Mass., U.S.A). All experiments were performed in triplicate.

[3] = biological target: T2, human CRHR2 (Homo sapiens, UniProt Q13324); assay: CRHR2 radioligand binding, [125I]-anti-sauvagine-30, SK-N-MC membranes; conditions: CRHR2
T2 construct: expressed in transfected cells
T2 sequence (Q13324 1-411): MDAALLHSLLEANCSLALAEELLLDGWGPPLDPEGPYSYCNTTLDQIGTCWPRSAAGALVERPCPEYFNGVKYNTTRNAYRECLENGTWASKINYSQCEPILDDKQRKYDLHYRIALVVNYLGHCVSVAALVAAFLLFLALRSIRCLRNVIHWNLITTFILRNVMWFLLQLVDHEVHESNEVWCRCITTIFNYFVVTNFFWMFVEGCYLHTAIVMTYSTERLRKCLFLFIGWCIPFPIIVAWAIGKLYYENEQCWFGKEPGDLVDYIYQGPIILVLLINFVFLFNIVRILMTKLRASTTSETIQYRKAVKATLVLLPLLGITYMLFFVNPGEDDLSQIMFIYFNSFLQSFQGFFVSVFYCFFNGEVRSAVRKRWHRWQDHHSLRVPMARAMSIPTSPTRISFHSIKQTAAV
Protocol: The binding profile of h-SCP (SEQ ID NO:1) at CRHR2 was determined in radioligand binding studies in a membrane preparation of SK-N-MC cells stably transfected with human CRHR2 using [^125I]-anti-sauvagine-30 as the radiolabel. […] The solution was then homogenized with a Polytron tissue grinder at a setting of 10 and 7×3 s (Brinkmann Instruments, Westbury, N.Y.). […] The supernatant was re-centrifuged at 26,892×g for 25 min at 4° Celsius with the final pellet being re-suspended in assay buffer. […] For competition studies, cell membranes of […] volume were incubated with either 60 pM [^125I]-anti-sauvagine-30 in 50 μl volume for the CRHR2 assay or with)[^125I]-([…]-sauvagine for the CRHR1 assay in the presence of 15 μl of competing ligand for 120 min having a total volume of 150 μl. […] The bound radioactivity was separated by filtration using a Multiscreen Resist manifold (Millipore Corp., Billerica, Mass., U.S.A). The filters were washed three times with ice-cold PBS at pH 7.5 and radioactivity retained on the filters was quantified by its liquid scintillation measured by a TopCount counter (Packard BioScience, Boston, Mass., U.S.A). All experiments were performed in triplicate. Data from individual competition curves were expressed as the percentage of specific [^125I]-anti-sauvagine-30 or)[^125I]-([…]-sauvagine binding (B) within each experiment. […] The competition curve obtained with h-SCP (SEQ ID NO:1) was biphasic.

[4] = test system: anaesthetized male Sprague-Dawley rats; assay: Hemodynamics in anaesthetized rats (IV bolus); format: in vivo, rat; conditions: healthy anaesthetized rats
Protocol: The hemodynamic profile of h-SCP (SEQ ID NO:1) was determined in sodium pentobarbital anaesthetized male Sprague-Dawley rats (FIG. 10). A SPR-320 Mikro-Tip® integrated catheter-tipped micro-manometer (Millar Instruments, Houston, Tex., U.S.A.) was placed in the right femoral artery for blood pressure measurements, and another one directly in the left ventricle for LV pressure measurement. […] The changes in hemodynamic parameters induced by h-SCP (SEQ ID NO:1, full circle in FIG. 10) were blocked by pretreatment with anti-sauvagine-30 (SEQ ID NO:118, open circle in FIG. 10).

[5] = biological target: T3, human corticotrophin releasing hormone receptor type 1 (CRHR1) (human, UniProt P34998 24-415); assay: radioligand competition against [125I]-(Tyr0)-sauvagine, CRHR1 assay, cell membranes
T3 construct: whole, on cells; cAMP assay on whole cells; radioligand assay on cell membranes; also called h-CRHR1; CRH receptor type 1
T3 sequence (looked up): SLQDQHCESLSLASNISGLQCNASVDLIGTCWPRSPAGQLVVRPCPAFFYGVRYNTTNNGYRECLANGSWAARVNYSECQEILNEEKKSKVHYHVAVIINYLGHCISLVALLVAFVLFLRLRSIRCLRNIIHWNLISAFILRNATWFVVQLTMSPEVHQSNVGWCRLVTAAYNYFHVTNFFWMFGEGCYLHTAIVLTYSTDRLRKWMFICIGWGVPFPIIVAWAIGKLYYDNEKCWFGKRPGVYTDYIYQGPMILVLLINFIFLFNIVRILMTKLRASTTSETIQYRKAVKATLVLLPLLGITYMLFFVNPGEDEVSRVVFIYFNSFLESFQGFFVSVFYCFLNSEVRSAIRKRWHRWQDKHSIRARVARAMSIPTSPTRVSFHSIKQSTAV
Protocol: Frozen cell pellets were defrosted on ice in 15 ml of assay buffer that was composed of 10 mM HEPES, 130 mM NaCl, 4.7 mM KCl, 5 mM MgCl₂, and 0.089 mM bacitracin at pH 7.2 and 21±3° Celsius. The solution was then homogenized with a Polytron tissue grinder at a setting of 10 and 7×3 s (Brinkmann Instruments, Westbury, N.Y.). The homogenate was centrifuged at 4° Celsius at 800×g for 5 min with the pellet being discarded. The supernatant was re-centrifuged at 26,892×g for 25 min at 4° Celsius with the final pellet being re-suspended in assay buffer. All binding assays were conducted in 96-well Multiscreen GF/B filter plates (Millipore, Billericay, Mass., U.S.A.) that were pre-soaked in assay buffer with 0.3% PEI for 1 hour. […]
The bound radioactivity was separated by filtration using a Multiscreen Resist manifold (Millipore Corp., Billerica, Mass., U.S.A). The filters were washed three times with ice-cold PBS at pH 7.5 and radioactivity retained on the filters was quantified by its liquid scintillation measured by a TopCount counter (Packard BioScience, Boston, Mass., U.S.A). […]
Data from individual competition curves were expressed as the percentage of specific [¹²⁵I]-anti-sauvagine-30 or)[¹²⁵I]-(Tyr⁰-sauvagine binding (B) within each experiment.

[6] = biological target: T4, human corticotrophin releasing hormone receptor type 2 (CRHR2) (human) (UniProt Q13324); assay: radioligand competition against [125I]-anti-sauvagine-30, membranes of SK-N-MC cells with human CRHR2
T4 sequence (looked up): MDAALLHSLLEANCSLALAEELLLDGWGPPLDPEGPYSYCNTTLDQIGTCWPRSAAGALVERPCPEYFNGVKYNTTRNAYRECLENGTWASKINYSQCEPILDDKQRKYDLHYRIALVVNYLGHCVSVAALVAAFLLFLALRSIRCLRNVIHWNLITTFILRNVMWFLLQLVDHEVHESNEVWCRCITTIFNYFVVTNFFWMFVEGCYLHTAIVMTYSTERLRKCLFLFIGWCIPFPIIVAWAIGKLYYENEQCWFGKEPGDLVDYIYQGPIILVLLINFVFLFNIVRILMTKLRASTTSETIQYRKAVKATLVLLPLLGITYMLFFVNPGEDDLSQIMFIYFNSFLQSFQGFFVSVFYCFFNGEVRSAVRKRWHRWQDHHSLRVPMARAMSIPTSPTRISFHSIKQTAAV

[7] = biological target: T4, human corticotrophin releasing hormone receptor type 2 (CRHR2) (human); assay: cell-based or functional assay
[8] = biological target: T3, human corticotrophin releasing hormone …; assay: cell-based or functional assay
[9] = biological target: T4, human corticotrophin releasing hormone receptor type 2 (CRHR2) (human); assay: radioligand competition against [125I]-anti-sauvagine-30, CRHR2 membranes

Molecule: CC[C@H](C)[C@H](NC(=O)[C@@H](NC(=O)[C@H](CC(=O)O)NC(=O)[C@H](CC(C)C)NC(=O)[C@H](CC(C)C)NC(=O)[C@H](CC(C)C)NC(=O)[C@H](CCCNC(=N)N)NC(=O)[C@H](CC(N)=O)NC(=O)[C@H](CC(N)=O)NC(=O)[C@H](C)NC(=O)[C@H](C)NC(=O)[C@H](CCC(N)=O)NC(=O)[C@H](CCC(N)=O)NC(=O)[C@H](CCCCN)NC(=O)[C@H](CCC(=O)O)NC(=O)[C@H](CCCCN)NC(=O)[C@H](CCC(=O)O)NC(=O)[C@H](CCC(N)=O)NC(=O)[C@H](CCCCN)NC(=O)[C@H](CCC(=O)O)NC(=O)[C@@H](NC(=O)[C@H](CCC(=O)O)NC(=O)[C@@H](NC(=O)[C@H](CCSC)NC(=O)[C@H](CCCCN)NC(=O)[C@H](CCCNC(=N)N)NC(=O)[C@H](CC(C)C)NC(=O)[C@H](CC(C)C)NC(=O)[C@H](Cc1c[nH]cn1)NC(=O)C(N)Cc1ccccc1)[C@@H](C)CC)[C@@H](C)CC)[C@@H](C)O)C(N)=O (stereo partly drawn) [SEQ ID NO: 118, FHLLRKMIEIEKQEKEKQQAANNRLLLDTI-NH2, reference compound]
- effect on cardiovascular parameters ([1]; CRHR2 blocking doses in dogs with advanced heart failure (N=4)): without effect on cardiovascular parameters
- CO ([1]; Table 20, AS-30 alone): 1.44 ± 0.04 L/min
- HR ([1]; Table 20, AS-30 alone): 79 ± 3 beats/min
- LV+dP/dt ([1]; Table 20, AS-30 alone): 1675 ± 109 mmHg/sec
- LVEDP ([1]; Table 20, AS-30 alone): 15 ± 1 mmHg
- LVEDV ([1]; Table 20, AS-30 alone): 68 ± 2.7 mL
- LVEF ([1]; Table 20, AS-30 alone): 27 ± 0%
- LVESV ([1]; Table 20, AS-30 alone): 50 ± 1.9 mL
- MPAP ([1]; Table 20, AS-30 alone): 16 ± 0.7 mmHg
- PSAP ([1]; Table 20, AS-30 alone): 94 ± 5 mmHg
- SV ([1]; Table 20, AS-30 alone): 18 ± 0.8 mL
- nH [2]: 1.00 ± 0.49
- nH [3]: 1.15 ± 0.12
- effect on baseline hemodynamic parameters [4]: did not inhibit baseline parameters

- pKI [5]: 5.81 -log10(M)
- pKI [6]: 7.78 -log10(M)
- pA2 (antagonism of the cAMP response to h-SCP) [7]: 7.82 -log10(M)
Molecule: FHLLRKMIEIEKQEKEKQQAANNRLLLDTI-NH2 (also called SV30; AS-30) [anti-sauvagine-30]

- pA50 [8]: < 5 -log10(M)
- pKI [5]: 4.6 -log10(M)
- pKI [6]: 5.71 -log10(M)
- A50 (concentration required for 50% maximum effect), cAMP [7]: 0.4 nM
- control pA50 across assay batches [7]: 9.47 to 9.74 -log10(M)
- pA50 [7]: 9.4 -log10(M)
- pIC50 (low affinity state) [9]: 6.6 -log10(M)
B1: Human stresscopin with amidated C-terminus (peptide)
peptide: TKFTLSLDVPTNIMNLLFNIAKAKNLRAQAAANAHLMAQI-NH2
notes: 40-amino-acid peptide; also called h-SCP
